What was measured:
[1] = tested on: EMT-6 mouse mammary tumor cells; assay: antitumor activity in mice bearing subcutaneous EMT-6 mouse mammary tumor cells; type: in vivo
Procedure: A randomized trial was conducted to evaluate the antitumor activity of fosbretabulin tromethamine (CA4P) in mice bearing subcutaneous EMT-6 mouse mammary tumor cells in combination with other treatments. Other treatments include a combination treatment with anti-CTLA-4 antibody (ref: BE0131, Bioxcell; clone: 9H10; reactivity: mouse; isotype: Hamster IgG1; storage conditions: +4° C.).
CA4P and anti-CTLA-4 antibodies were prepared in phosphate buffered saline (PBS). CA4P was injected at the dose of 100 mg/kg. The anti-CTLA-4 antibody was injected at the dose of 10 mg/kg. The tested items were injected into the peritoneal cavity of mice (e.g. intraperitoneally, IP). The administration volume was 10 mL/kg (200 μL/mouse of 20 g) adjusted to the most recent individual body weight of the mice.
An EMT-6 cell line having an ATCC origin and a culture medium was used. The EMT-6 cell line was established from a transplantable murine mammary carcinoma that arose in a BALB/cCRGL mouse after implantation of a hyperplastic mammary alveolar nodule. EMT-6 tumor cells were grown as a monolayer at 37° C. in a humidified atmosphere (5% CO2, 95% air). The culture medium was RPMI 1640 containing 2 mM L-glutamine (ref: BE12-702F, Lonza, Verviers, Belgium) supplemented with 10% fetal bovine serum (ref: 3302, Lonza).
Healthy female Balb/C mice, 6-8 weeks old at reception, were used in the study. […]

[2] = tested on: T-cell mediated immune response; conditions: J. Immunol. 2007; 178: 1573-1580; cited from earlier work

SMILES | average tumor size (tumor volume versus time, FIG. 1) ([1]; Balb/C mice, EMT-6 tumors, CA4P 100 mg/kg IP, anti-CTLA-4 10 mg/kg IP, TWx2) | mice showing tumor regression ([1]; groups of 8 Balb/C mice, subcutaneous EMT-6 tumors, CA4P 100 mg/kg IP TWx2, anti-CTLA-4 10 mg/kg IP TWx2) | effect on T-cell mediated immune response [2]
COc1ccc(/C=C\c2cc(OC)c(OC)c(OC)c2)cc1OP(=O)(O)O.NC(CO)(CO)CO [CA4P, fosbretabulin tromethamine] | steadily increased | One of the eight | –
COc1cc2c(c(OC)c1OC)-c1ccc(OP(=O)(O)O)cc1[C@@H](NC(C)=O)CC2 [ZD6126] | – | – | may reduce T-cell mediated immune response

— patent publication US11419934B2, “Use of VDAS to enhance immunomodulating therapies against tumors” (Oncotelic Therapeutics, Inc., priority 2015, dated 2022)
